Measured values as given in patent publication US7504430B2, “Maleiimide anti-tumor phosphatase inhibitors” (The United States of America as represented by the …, priority 2004, dated 2009).
pIC50: −log10 of the molar value. Like-named read-outs stand apart in the source and are kept apart here. Blank lines part the entries; values can stand above or below the molecule they belong to.

Key:
Hep3B cells = assay: Hep3B cell growth inhibition (Hoechst 33258 DNA fluorescence, 3 days of treatment); format: cell-based, human; details: for Potency at Hep3B cell growth inhibition compared with Cpd5: versus Cpd5 (2-(2-mercaptoethanol)-3-methyl-1,4-naphthoquinone); for Inhibition of Hep3B cell growth: even at 10 μM
Protocol: Hep3B or JM-1 hepatoma cells were grown in tissue culture in MEM medium supplemented with 10% fetal bovine serum. Cells were plated at a density of 1×104. […] Culture medium was replaced every day with new medium containing the inhibitor. After 3 days of treatment, the cells were rinsed once with PBS and frozen at −80° C. until counting. Frozen cells were thawed and incubated with the DNA-staining dye Hoescht 33258. The cell numbers were determined by measuring the dye-bound DNA fluorescence by a fluorescent plate reader.
(§1) IC50 was determined from the growth inhibition curves.

[1] = orally in mice; cited from earlier work
SKBR3 = assay: Tumor cell line growth inhibition, SKBR3; format: cell-based; details: Homo sapiens, SK-BR-3, 72 h; Breast, SKBR3, cultured for 3 days; maximum concentration 20 μmol/L
Protocol: as §1

PCI = assay: Tumor cell line growth inhibition, PCI; format: cell-based; details: Homo sapiens, 72 h, Tongue, cultured for 3 days, maximum concentration 20 μmol/L
Protocol: as §1

LS180 = assay: Tumor cell line growth inhibition, LS180; format: cell-based; details: Homo sapiens, 72 h; Colon, LS180, cultured for 3 days; maximum concentration 20 μmol/L
Protocol: as §1

FemX = assay: Tumor cell line growth inhibition, FemX; format: cell-based; details: Homo sapiens, Fem-X, 72 h, Skin, cultured for 3 days, maximum concentration 20 μmol/L
Protocol: as §1

MCF7 = assay: Tumor cell line growth inhibition, MCF7; format: cell-based; details: Homo sapiens, 72 h; Breast, MCF7, cultured for 3 days; maximum concentration 20 μmol/L
Protocol: as §1

HR = assay: Tumor cell line growth inhibition, HR; format: cell-based; details: Homo sapiens, 72 h, Stomach, cultured for 3 days, maximum concentration 20 μmol/L
Protocol: as §1

MKP1 = molecular target: T1, MKP1 (Homo sapiens, UniProt P28562); assay: Phosphatase inhibition, MKP1; format: biochemical
T1 sequence (P28562 1-367): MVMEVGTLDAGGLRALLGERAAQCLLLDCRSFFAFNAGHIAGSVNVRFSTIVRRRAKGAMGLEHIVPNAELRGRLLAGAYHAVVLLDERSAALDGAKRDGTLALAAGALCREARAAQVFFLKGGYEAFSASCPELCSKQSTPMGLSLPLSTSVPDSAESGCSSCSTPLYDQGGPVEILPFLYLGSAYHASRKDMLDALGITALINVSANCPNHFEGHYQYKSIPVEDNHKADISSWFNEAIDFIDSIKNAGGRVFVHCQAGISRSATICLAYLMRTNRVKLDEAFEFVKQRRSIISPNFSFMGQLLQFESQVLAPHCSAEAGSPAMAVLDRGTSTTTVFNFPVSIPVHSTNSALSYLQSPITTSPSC

JM-1 rat hepatoma cells = assay: Orthotopic rat tumor model, JM-1 hepatoma cells seeded into livers of F344 rats; format: in vivo; details: 1 mg/kg intraperitoneal, every other day, 5 injections, control rats averaged 11 tumors per liver
Protocol: JM-1 rat hepatoma cells were seeded into livers of F344 rats. […] The control rats had on the average 11 tumors per liver, whereas the PM-20-treated rats had 2 tumors per rat.

CD45 = molecular target: T2, CD45 (Homo sapiens, UniProt P08575); assay: Phosphatase inhibition, CD45; format: biochemical
T2 sequence (P08575 26-1306): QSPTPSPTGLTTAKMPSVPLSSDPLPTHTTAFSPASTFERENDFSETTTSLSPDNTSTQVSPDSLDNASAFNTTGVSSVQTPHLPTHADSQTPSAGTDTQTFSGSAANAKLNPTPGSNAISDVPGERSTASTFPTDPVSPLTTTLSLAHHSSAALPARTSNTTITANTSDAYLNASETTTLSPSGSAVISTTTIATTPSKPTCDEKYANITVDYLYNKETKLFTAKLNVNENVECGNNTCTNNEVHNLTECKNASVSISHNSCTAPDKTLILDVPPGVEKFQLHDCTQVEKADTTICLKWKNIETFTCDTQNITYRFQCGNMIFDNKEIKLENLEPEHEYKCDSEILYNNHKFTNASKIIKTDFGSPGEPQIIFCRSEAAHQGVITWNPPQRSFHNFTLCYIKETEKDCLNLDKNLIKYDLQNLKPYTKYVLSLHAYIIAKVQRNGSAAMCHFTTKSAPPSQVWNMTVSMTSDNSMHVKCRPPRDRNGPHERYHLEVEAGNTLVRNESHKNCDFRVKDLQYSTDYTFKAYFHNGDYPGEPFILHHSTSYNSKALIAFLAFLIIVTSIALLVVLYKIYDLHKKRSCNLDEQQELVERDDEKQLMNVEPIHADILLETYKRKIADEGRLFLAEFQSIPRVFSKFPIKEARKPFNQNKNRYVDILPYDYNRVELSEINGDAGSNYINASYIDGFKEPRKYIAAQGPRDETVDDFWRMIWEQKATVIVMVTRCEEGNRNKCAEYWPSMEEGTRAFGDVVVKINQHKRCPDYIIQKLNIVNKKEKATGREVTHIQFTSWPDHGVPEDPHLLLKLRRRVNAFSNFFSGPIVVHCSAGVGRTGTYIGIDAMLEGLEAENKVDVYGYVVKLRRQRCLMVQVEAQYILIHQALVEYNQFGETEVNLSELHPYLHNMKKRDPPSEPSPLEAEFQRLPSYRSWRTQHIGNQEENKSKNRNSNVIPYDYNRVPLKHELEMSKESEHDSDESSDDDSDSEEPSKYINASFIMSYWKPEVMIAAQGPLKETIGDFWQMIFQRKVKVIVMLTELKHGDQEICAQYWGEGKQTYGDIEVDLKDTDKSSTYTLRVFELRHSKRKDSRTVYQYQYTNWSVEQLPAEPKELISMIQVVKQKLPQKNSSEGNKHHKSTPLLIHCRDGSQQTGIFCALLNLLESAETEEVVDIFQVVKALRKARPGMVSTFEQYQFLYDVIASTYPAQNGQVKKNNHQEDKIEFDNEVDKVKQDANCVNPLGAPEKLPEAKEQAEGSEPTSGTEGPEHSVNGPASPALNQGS

PYP1B = molecular target: T3, PYP1B (Homo sapiens, UniProt P18031); assay: Phosphatase inhibition, PYP1B; format: biochemical
T3 sequence (P18031 1-435): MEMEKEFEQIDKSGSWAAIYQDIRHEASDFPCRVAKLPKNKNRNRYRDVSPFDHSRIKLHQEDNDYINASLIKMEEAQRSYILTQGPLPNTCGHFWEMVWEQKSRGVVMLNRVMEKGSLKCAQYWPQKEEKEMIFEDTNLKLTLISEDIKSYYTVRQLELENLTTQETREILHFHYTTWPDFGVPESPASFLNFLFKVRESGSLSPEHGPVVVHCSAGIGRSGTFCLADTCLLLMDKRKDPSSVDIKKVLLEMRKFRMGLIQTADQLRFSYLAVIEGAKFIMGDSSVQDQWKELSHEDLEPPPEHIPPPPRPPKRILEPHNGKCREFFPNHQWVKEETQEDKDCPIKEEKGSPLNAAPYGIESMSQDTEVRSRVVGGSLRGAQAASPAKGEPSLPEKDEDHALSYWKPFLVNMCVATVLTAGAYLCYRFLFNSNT

[2] = molecular target: T4, catalytic domain of Cdc25B (Homo sapiens, UniProt P30305); assay: Binding to the catalytic domain of Cdc25B
T4 sequence (P30305 431-538 limits assumed): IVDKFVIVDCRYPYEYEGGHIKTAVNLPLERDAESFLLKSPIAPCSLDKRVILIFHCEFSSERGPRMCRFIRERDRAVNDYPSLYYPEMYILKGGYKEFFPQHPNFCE

EGFR and ERK1/2 = assay: Tyrosine phosphorylation of EGFR and ERK1/2; format: cell-based
cell cycle = assay: Cell cycle analysis; format: cell-based; details: with upregulation of tyrosine phosphorylation of Cdk1, 2 and 4
[3] = test system: primary cultures of normal hepatocytes; assay: DNA synthesis in primary cultures of normal hepatocytes versus Hep3B hepatoma cells; format: cell-based
[4] = Homo sapiens, 72 h, Hep3B cells, 3 days of treatment, read-out: IC50, Hep3B cell growth inhibition
[5] = Homo sapiens, 72 h, Liver, Hep3B, cultured for 3 days, maximum concentration 20 μmol/L, read-out: IC50

SMILES: CCCOc1ccc(N2C(=O)C(SCCO)=C(SCCO)C2=O)cc1 [PM-30, 3,4-Bis-(2-hydroxy-ethylsulfanyl)-1-(4-propoxyphenyl)-pyrrole-2,5-dione]
Potency at Hep3B cell growth inhibition compared with Cpd5 (Hep3B cells): more potent inhibitors than Cpd5

SMILES: CC1=CC(=O)c2ccccc2C1=O [Vitamin K3]
LC50 [1]: 0.5 g/kg

pIC50 (Hep3B cells; [4]): 5.22
SMILES: COc1ccc(N2C(=O)C(SCCO)=C(SCCO)C2=O)cc1 [PM-14, 3,4-bisthiolethanol-1-p-methoxyphenyl maleiimide]

pIC50 (Hep3B cells; Hep3B cells, 3 days of treatment, read-out: IC50, Hep3B cell growth inhibition): 4.52
SMILES: O=C1C(SCCO)=C(SCCO)C(=O)N1c1ccccc1 [PM-I]

SMILES: CCOc1ccc(N2C(=O)C(SCCO)=C(SCCO)C2=O)cc1 [PM-28, 3,4-Bis-(2-hydroxy-ethylsulfanyl)-1-(4-ethoxyphenyl)-pyrrole-2,5-dione]
Potency at Hep3B cell growth inhibition compared with Cpd5 (Hep3B cells): more potent inhibitors than Cpd5

pIC50 (SKBR3): < 4.70
pIC50 (Hep3B cells; [5]): < 4.70
pIC50 (PCI): < 4.70
pIC50 (LS180): < 4.70
pIC50 (FemX): < 4.70
pIC50 (MCF7): < 4.70
pIC50 (HR): < 4.70
SMILES: CC(=O)Nc1ccc(N2C(=O)C(SCCO)=C(SCCO)C2=O)cc1 [PM-26, N-{4-[3,4-Bis-(2-hydroxy-ethylsulfanyl)-2,5-dioxo-2,5-dihydro-pyrrol-1-yl]-phenyl}-acetamide]
Inhibition of Hep3B cell growth (Hep3B cells): did not inhibit

SMILES: N#CC(=C(/N)Sc1ccccc1N)/C(C#N)=C(\N)Sc1ccccc1N [U0126, reference compound]
Effect on the growth inhibitory effect of PM-20 (Hep3B cells; MEK1/2 inhibitor given with PM-20, inhibition of ERK1/2 phosphorylation): antagonized the growth inhibitory effect of PM-20

SMILES: O=C1C(SCCO)=C(SCCO)C(=O)N1c1ccc2ccccc2c1 [PM-34, 3,4-Bis-(2-hydroxy-ethylsulfanyl)-1-naphthalen-2-yl-maleimide]
Potency at Hep3B cell growth inhibition compared with Cpd5 (Hep3B cells): more potent inhibitors than Cpd5

pIC50 (SKBR3): 5.22
pIC50 (MKP1): 4.12
pIC50 (Hep3B cells; [4]): 6.15
pIC50 (Hep3B cells; [5]): 6.15
pIC50 (PCI): 5.60
Activity against CD45 (CD45): essentially no activity
Activity against PYP1B (PYP1B): essentially no activity
pIC50 (LS180): < 4.70
pIC50 (FemX): 5.60
Binding to the catalytic domain of Cdc25B [2]: binds to the catalytic domain of Cdc25B
pIC50 (MCF7): 5.40
pIC50 (HR): 5.22
Concentration needed to inhibit DNA synthesis, normal hepatocytes versus Hep3B [3]: 10 fold
SMILES: O=C1C(SCCO)=C(SCCO)C(=O)N1c1ccc(-c2ccccc2)cc1 [PM-20, N-Biphenyl-4-yl-3,4-bis-(2-hydroxy-ethylsulfanyl)-maleimide]
Potency at Hep3B cell growth inhibition compared with Cpd5 (Hep3B cells): more potent inhibitors than Cpd5
Number of tumors (JM-1 rat hepatoma cells): 2 tumors per rat
Inhibition of de-phosphorylation of ERK 1/2 (EGFR and ERK1/2): potent inhibitor
Tyrosine phosphorylation of EGFR and ERK1/2 (EGFR and ERK1/2): appear to induce tyrosine phosphorylation
Cell cycle effect (cell cycle): block, mainly in the G1 phase of cell cycle

SMILES: O=C1C(SCCO)=C(SCCO)C(=O)N1c1ccc(OCc2ccccc2)cc1 [PM-38, 1-(4-Benzyloxy-phenyl)-3,4-bis-(2-hydroxy-ethylsulfanyl)-pyrrole-2,5-dione]
Inhibition of Hep3B cell growth (Hep3B cells): did not inhibit

pIC50 (Hep3B cells; [4]): ~7.00
SMILES: O=C1C(SCCO)=C(SCCO)C(=O)N1c1ccc(-c2ccc([N+](=O)[O-])cc2)cc1 [PM-42, 1-(4′-nitro-biphenyl-4-yl)-3,4-bis-(2-hydroxy-ethylsulfanyl)-pyrrole-2,5-dione]
